Experimental data: ChEMBL document CHEMBL1129813, “Synthesis and cell growth inhibitory properties of substituted (E)-1-phenylbut-1-en-3-ones” (Bioorg Med Chem Lett, 1997)
pIC50: −log10 of the molar value.

System: K562
Test: In vitro cell growth inhibitory activity against K562 human chronic myelogenous leukemia cell line
Assay type: functional, cell-based

How did the pIC50 turn out when `CC(=O)/C=C/c1ccc2c(c1)OCO2` was run?
The pIC50 was 4.92.

With `COc1cc(N(C)C)ccc1/C=C/C(C)=O` as the compound, how does the pIC50 read?
Its pIC50 is 4.17.

With `CC(=O)/C=C/c1ccc2ccccc2c1` as the compound, how does the pIC50 read?
Its pIC50 is 5.12.

With `CC(=O)/C=C/c1c(F)c(F)c(F)c(F)c1F` as the compound, how does the pIC50 read?
Its pIC50 is 5.72.

With `CC(=O)/C=C/c1ccc(N(C)C)cc1` as the compound, how does the pIC50 read?
The pIC50 was 4.05.

How did the pIC50 turn out when `CC(=O)/C=C/c1ccc(Cl)cc1Cl` was run?
The pIC50 was 5.10.

How did the pIC50 turn out when `COc1cc(/C=C/C(C)=O)cc(OC)c1` was run?
Its pIC50 is 5.24.

How did the pIC50 turn out when `CC(=O)/C=C/C=C/c1ccccc1` was run?
Its pIC50 is 4.70.

`COc1ccc(/C=C/C(C)=O)c(OC)c1` was tested. Which pIC50 did it give?
The pIC50 was 4.52.

With `CC(=O)/C=C/c1ccco1` as the compound, how does the pIC50 read?
Its pIC50 is less than 4.00.

How did the pIC50 turn out when `COc1ccc(/C=C/C(C)=O)cc1OC` was run?
Its pIC50 is 4.47.

`CC(=O)/C=C/c1ccc(OCc2ccccc2)cc1` was tested. Which pIC50 did it give?
The pIC50 was 4.99.

How did the pIC50 turn out when `CC(=O)/C=C/c1cc(Br)ccc1F` was run?
The pIC50 was 5.28.

With `CC(=O)/C=C/c1ccc(C(C)C)cc1` as the compound, how does the pIC50 read?
The pIC50 was 4.68.

With `COc1cc(/C=C/C(C)=O)cc(OC)c1OC` as the compound, how does the pIC50 read?
Its pIC50 is 4.77.

How did the pIC50 turn out when `CC(=O)/C=C/c1ccc(Br)cc1F` was run?
Its pIC50 is 5.13.

With `COc1ccc(/C=C/C(C)=O)cc1O` as the compound, how does the pIC50 read?
The pIC50 was 4.38.

`CC(O)CCc1ccc(O)cc1` (configuration not stated) was tested. Which pIC50 did it give?
The pIC50 was less than 4.00.

How did the pIC50 turn out when `CC(=O)/C=C/c1ccc(OCc2ccccc2)c(OCc2ccccc2)c1` was run?
Its pIC50 is 5.08.

How did the pIC50 turn out when `CC(=O)/C=C/c1cccc([N+](=O)[O-])c1` was run?
The pIC50 was 5.59.

`CC(=O)/C=C/c1ccc(F)c(Br)c1` was tested. Which pIC50 did it give?
The pIC50 was 5.54.

With `COc1cc(/C=C/C(C)=O)cc(OC)c1O` as the compound, how does the pIC50 read?
The pIC50 was 4.25.

`CSc1ccc(/C=C/C(C)=O)cc1` was tested. Which pIC50 did it give?
The pIC50 was 4.82.

How did the pIC50 turn out when `COc1cc(OC)c(/C=C/C(C)=O)c(OC)c1` was run?
Its pIC50 is 5.03.

How did the pIC50 turn out when `CC(=O)/C=C/c1cccs1` was run?
The pIC50 was 4.70.

`CC(=O)/C=C/c1ccc(C)cc1` was tested. Which pIC50 did it give?
Its pIC50 is 5.12.

How did the pIC50 turn out when `COc1ccc(/C=C/C(C)=O)cc1` was run?
Its pIC50 is 4.10.

With `CC(=O)/C=C/c1ccc(F)cc1` as the compound, how does the pIC50 read?
Its pIC50 is 5.21.

`CC(=O)/C=C/c1ccc([N+](=O)[O-])cc1` was tested. Which pIC50 did it give?
The pIC50 was 5.59.

`CC(=O)/C=C/c1cccc(C(F)(F)F)c1` was tested. Which pIC50 did it give?
The pIC50 was 5.46.

With `COc1cccc(/C=C/C(C)=O)c1O` as the compound, how does the pIC50 read?
Its pIC50 is 5.00.

How did the pIC50 turn out when `CC(=O)/C=C/c1ccc(Br)cc1` was run?
Its pIC50 is 5.25.

With `CC(=O)/C=C/c1ccc(C(F)(F)F)cc1` as the compound, how does the pIC50 read?
Its pIC50 is 5.48.

With `CC(=O)/C=C/c1ccc(Cl)cc1` as the compound, how does the pIC50 read?
The pIC50 was 5.08.

How did the pIC50 turn out when `CC(=O)/C=C/c1ccc(O)cc1` was run?
The pIC50 was 4.22.

`COc1cc(/C=C/C(C)=O)ccc1O` [DEHYDROZINGERONE] was tested. Which pIC50 did it give?
The pIC50 was 4.17.

`CC(=O)CCc1ccc(O)cc1` [RASPBERRYKETONE] was tested. Which pIC50 did it give?
The pIC50 was less than 4.00.
